Data reported in patent US20180353518A1, “OPHTHALMIC SOLUTIONS” (Santen Pharmaceutical Co., LTD., priority 2000, published 2018).

Assay: Solubility Test with polysorbate 80 in water
Format: physicochemical
Conditions: room temperature and 40° C.
Method: In order to formulate a drug which is hardly soluble in water in an ophthalmic solution, it is necessary to devise to dissolve the drug in water. Since the nonionic surfactant acts as the solubilizing agent, the following solubility tests were performed in order to make sure of its required amount.
Test method: The present compound having a concentration exceeding solubility and polysorbate 80 were added to 10 ml of water, the mixtures were stirred at 5° C., room temperature and 40° C. for 24 hours respectively and then centrifuged at 20,000 rpm, and concentrations of the present compound contained in the supernatants were measured by the HPLC method. […] The “%” in the FIGURE is % by weight.

CC(C)OC(=O)CCC/C=C\C[C@@H]1[C@@H](/C=C/C(F)(F)COc2ccccc2)[C@H](O)C[C@@H]1O [the present compound, 16-Phenoxy-15-deoxy-15,15-difluoro-17,18,19,20-tetranorprostaglandin F2α isopropyl ester]
Water-solubility of the present compound versus temperature (5° C., with polysorbate 80 (FIG. 1)): at low temperatures is higher than that at high temperatures | solubility of the present compound versus amount of polysorbate 80 (water, stirred 24 hours at 5° C., supernatant by HPLC (FIG. 1)): increases depending on amounts of polysorbate 80
